Laboratory results: patent publication US20080220416A1, “Compositions for Inhibiting Cell Growth and Inducing Apoptosis in Cancer Cells and Methods of Use Thereof” (THE BOARD OF TRUSTEES OF THE UNIVERSITY OF ILLINOI, priority 2004, published 2008)
Square brackets hold non-standard residues; d marks the D form. Peptide text beside a SMILES is read from it. * marks the point of attachment. Nle = CCCC[C@H](N)C(=O)O; Cbz = O=C(OCc1ccccc1)*

Legend:
Format in all cases: cell-based, human
MDA-MB231 cells = assay: Cell cycle distribution of MDA-MB231 cells by flow cytometry
Method: Cell cycle analysis was performed to further study the effects of inhibition of Notch signaling in breast cancer cells. MDA-MB231 cells were treated overnight with 0-10 μM z-Leu-Leu-Nle-CHO prior to cell cycle distribution analysis by flow cytometry. Alternatively, MDA-MB231 cells were transfected with Notch-1, Notch-4 or control siRNA as described above in Example 15. For cell cycle distribution analysis by flow cytometry, z-Leu-Leu-Nle-CHO- or siRNA-treated cells (10^6) were pelleted and washed twice in PBS. Cells were then fixed in 80% methanol and stored at −20° C. until use. Fixed cells were pelleted and washed twice in PBS, and resuspended in 50 μl PI:PBS solution (50 μg/ml PI). After RNase A (100 μg/ml) treatment at 37° C. for an hour, cells were analyzed by flow cytometry using a FACScalibur instrument.

cyclins A and B1 = assay: Cyclin expression in MDA-MB231 cells (ribonuclease protection assay, Western blot)
Method: To explore the effects on Notch-1 siRNA on the expression of cyclins, the main regulators of cell cycle progression, ribonuclease protection assays and Western blots on Notch-1 siRNA-treated cells were performed. Transfection of the MBA-MD231 cells with Notch-1 siRNA (5′-AAGTGTCTGAGGCCAGCAAGA-3′) (SEQ ID NO. 1) or control siRNA (5′-AACAGTCGCGTTTGCGACTGG-3′) (SEQ ID NO: 5), was performed as described above. Ribonuclease protection assays were performed by first preparing total RNA using a RNeasy Mini kit (QIAGEN Cat. #74104) according to the manufacturer's instructions. The multi-probe template set hCYC-1 (containing DNA templates for cyclin A, cyclin B, cyclin C, cyclin D1, cyclin D2, cyclin D3, cyclin A1 L32 and GAPDH) was purchased from BD Biosciences (Cat. # 556189). The DNA template was used to synthesize a [^32P]UTP (10 mCi/ml, Amersham Bioscience) labelled probe in the presence of a GACU pool using a […] RNA-polymerase (BD Bioscience RiboQuant RPA starter package, Cat. # 556144). Hybridization with 20 μg of each target RNA was performed at 56° C. overnight, followed by digestion with RNAse A and T1 according to the BD Bioscience standard protocol. After proteinase K treatment, samples were precipitated, loaded on a 4.75% acrylamide-urea gel, and run at 55 W with 0.5×TBE. Gels were dried in the gel dryer under vacuum for 2 h at 90° C. Then gels were exposed on Kodak film (Eastman Kodak, Rochester, N.Y.) with intensifying screens and developed at −70° C. Western blots were performed as described above. […] Western blot data confirmed these findings. […] CDK1 levels were only modestly affected. Cyclin A/cdk2 phosphorylates E2F-1/DP complexes at the end of S-phase, inactivating them. This prevents a re-initiation of DNA replication and assures that the genome is replicated only once at each S phase. Failure of cyclin A/cdk2 to inactivate E2F results in inappropriately persistent E2F activity, which may lead to apoptosis. E2F-1 is known to upregulate its own transcription. […]

C8161 melanoma cells = assay: Proliferating versus serum-deprived C8161 melanoma cells, NOXA and apoptosis; settings: for NOXA induction: proliferating (10% FCS) or serum-deprived (no serum) C8161
Method: C8161 melanoma cells were induced into a relatively quiescent state by serum withdrawal. Proliferation assays were conducted in the presence or absence of 10% fetal calf serum (FCS) by manual counting of melanoma cells in triplicate wells on days 0, 1, 2 and 3. […] By phase contrast microscopy, the withdrawal of FCS arrested the cells (data not shown). This growth arrest was confirmed by Western blots of the cells that were maintained as either rapidly proliferating cells in the presence of 10% FCS or were growth arrested by serum withdrawal and washing with PBS for either 1 or 2 days. Whole cell extracts were prepared and Western blot analysis was performed as described above in Example 8 using antibodies to NOXA, p21 (SC-817, Santa Cruz Biotechnology, Santa Cruz, Calif.) and β-actin as described here and above.
Growth arrest induced by serum withdrawal was confirmed by induction of p21. […] Thus, not only can proteasome inhibitors selectively induce NOXA and kill melanoma cells and not kill melanocytes independent of p53, but melanoma cells are susceptible to killing even when maintained in a relatively quiescent state in vitro.

RJ002L melanoma cells = assay: Bortezomib in RJ002L melanoma cells: sub-G0 DNA content by FACS and kinetic analysis
Method: To assess the effect of proteasome inhibitors on the cell lines, the cells were grown in suitable culture media as described above. Highly proliferating cells (i.e., cells that had reached approximately 30% confluency) were exposed to the inhibitors as described below. The culture media was replenished with media containing proteasome inhibitors at various concentrations and the cells were incubated for 24 hours prior to harvesting the cells for further analysis.
Following treatment with the proteasome inhibitors, the melanoma and melanocyte cell cultures were assayed for apoptotic cells using the APO TARGET Annexin V FITC staining kit (Biosource, Camarillo, Calif.) according to the manufacturer's instructions followed by flow cytometric analysis using FACScaliber (Becton Dickinson, Palo Alto, Calif.) as described in Qin, J. et al., 2001, Nat Med 7: 385-386. In some cases, cell cycle and apoptosis analysis was measured using propidium iodide staining and flow cytometry as described. Cells with DNA content less than the G0 amount of untreated cells were considered apoptotic. For cell analysis, DNA histograms were analyzed using MultiCycle for Windows (Phoenix Flow Systems, San Diego, Calif.) as described in Denning, M. F. et al., 1998, J Biol Chem 273: 29995-30002.
The ability of bortezomib to induce apoptosis in RJ002L cells was assayed by kinetic analysis. RJ002L cells were incubated with 1.0 μM bortezomib for 24 hours. At various time points during the 24 hours, the cells were assayed for apoptosis using APO TARGET Annexin V-FITC staining kits (Biosource, Camerillo, Calif.) according to manufacturer's instructions. The relative percentage of cells undergoing apoptosis was quantified by flow cytometric analysis using FACSCaliber (Becton Dickinson, Palo Alto, Calif.) as described in Qin J et al., 2004, Mol Cancer Ther 3:895-902.

5′-AAGTGTCTGAGGCCAGCAAGA-3′ [Notch-1 siRNA]
cell cycle distribution (MDA-MB231 cells; siRNA transfection): accumulation of cells in G2/M was maximal at 24 hours
cyclin B1 protein (Western blot) (cyclins A and B1): striking decrease in the steady state levels of cyclin B1 at 48 hours
cyclin mRNA expression (ribonuclease protection assay) (cyclins A and B1): decreases the expression of mRNAs for cyclins B1 and A, but not C, D, or A1

CC(C)C[C@@H](C=O)NC(=O)[C@H](CC(C)C)NC(=O)[C@H](CC(C)C)NC(=O)OCc1ccccc1 [MG-132, benzoxycarbonyl-Leucyl-Leucyl-Leucyl-aldehyde] (Cbz-Leu-Leu-Leu-aldehyde)
NOXA induction (C8161 melanoma cells): trigger prominent NOXA induction

CC(C)C[C@H](NC(=O)[C@H](Cc1ccccc1)NC(=O)c1cnccn1)B(O)O [bortezomib, N-(2-pyrazine)carbonyl-L-phenylalanine-L-leucine boronic acid]
cells with sub-G0 DNA content by FACS analysis (RJ002L melanoma cells; 0.01 μM, 24 hours): 2%
apoptotic cells (RJ002L melanoma cells; 0.1 μM, 24 hours): 20%
apoptotic cells (RJ002L melanoma cells; 1 μM or 10 μM, 24 hours): 29-30%
kinetic analysis of apoptosis (RJ002L melanoma cells; 1.0 μM, up to 24 hours): prominent apoptosis was detected at 18- and 24-hr time points
increase in apoptotic cells, 0.1 μM versus 0.01 μM (RJ002L melanoma cells; 24 hours): 10 fold
NOXA induction (C8161 melanoma cells): trigger prominent NOXA induction
cell death by apoptosis in serum-deprived cells (C8161 melanoma cells; serum-deprived versus proliferating C8161): comparable to that seen in bortezomib-treated proliferating melanoma cells

CCCC[C@@H](C=O)NC(=O)[C@H](CC(C)C)NC(=O)[C@H](CC(C)C)NC(=O)OCc1ccccc1 [z-Leu-Leu-Nle-CHO, N-benzyloxycarbonyl-leucyl-leucyl-norleucinal] (Cbz-Leu-Leu-[Nle]-aldehyde)
cell cycle distribution (MDA-MB231 cells; 0-10 μM overnight): accumulation of cells in the G2/M stage of the cell cycle
cyclin A and cyclin B protein (Western blot) (cyclins A and B1; 0.5 or 1 μM, 24 h): dramatically reduced the levels of cyclin A protein at 0.5 μM, whereas cyclin B was decreased at 1 μM
